From US8686143B2, “Compounds useful as inhibitors of Janus kinases” (Vertex Pharmaceuticals Incorporated, priority 2007, dated 2014)
pKi: −log10 of the molar value.

Molecular target: T1, JAK3 (Homo sapiens, UniProt P52333)
T1 sequence (P52333 1-1124): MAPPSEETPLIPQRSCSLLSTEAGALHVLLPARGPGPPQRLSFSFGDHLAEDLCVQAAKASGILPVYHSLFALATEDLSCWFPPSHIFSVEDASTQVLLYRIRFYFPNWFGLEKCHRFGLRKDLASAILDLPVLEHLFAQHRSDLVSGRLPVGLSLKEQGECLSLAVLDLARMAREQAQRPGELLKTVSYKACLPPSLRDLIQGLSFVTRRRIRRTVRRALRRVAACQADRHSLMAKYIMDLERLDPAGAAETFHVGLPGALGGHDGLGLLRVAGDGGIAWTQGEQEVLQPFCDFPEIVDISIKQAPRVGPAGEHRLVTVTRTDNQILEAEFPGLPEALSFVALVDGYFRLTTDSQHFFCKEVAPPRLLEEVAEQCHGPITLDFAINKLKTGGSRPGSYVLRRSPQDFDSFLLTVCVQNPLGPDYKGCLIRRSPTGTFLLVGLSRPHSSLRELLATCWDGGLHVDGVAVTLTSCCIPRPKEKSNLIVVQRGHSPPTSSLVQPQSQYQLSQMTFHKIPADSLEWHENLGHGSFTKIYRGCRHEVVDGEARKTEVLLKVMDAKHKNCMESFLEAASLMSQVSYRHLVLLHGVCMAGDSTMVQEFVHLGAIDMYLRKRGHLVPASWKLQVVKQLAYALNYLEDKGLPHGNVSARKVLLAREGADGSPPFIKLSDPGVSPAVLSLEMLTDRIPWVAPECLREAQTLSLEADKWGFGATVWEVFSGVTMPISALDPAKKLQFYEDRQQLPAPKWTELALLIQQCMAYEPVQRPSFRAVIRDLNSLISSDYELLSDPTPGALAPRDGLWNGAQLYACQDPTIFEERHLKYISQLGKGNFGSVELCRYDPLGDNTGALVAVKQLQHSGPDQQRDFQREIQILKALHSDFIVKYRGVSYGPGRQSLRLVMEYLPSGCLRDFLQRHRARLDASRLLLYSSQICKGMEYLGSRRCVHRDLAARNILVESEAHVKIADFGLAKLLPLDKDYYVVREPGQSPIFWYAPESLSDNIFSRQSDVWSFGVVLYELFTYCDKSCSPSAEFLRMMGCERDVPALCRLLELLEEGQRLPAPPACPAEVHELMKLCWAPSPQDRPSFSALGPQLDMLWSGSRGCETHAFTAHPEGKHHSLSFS
Assay: JAK3 Inhibition Assay (33P incorporation into poly(Glu)4Tyr)
Type: biochemical
Details: for pKi: 1 nM JAK3, 5 μM ATP, 1 μM poly(Glu)4Tyr, 25° C.
Experimental: Compounds were screened for their ability to inhibit JAK3 using the assay shown below. Reactions were carried out in a kinase buffer containing 100 mM HEPES (pH 7.4), 1 mM DTT, 10 mM MgCl2, 25 mM NaCl, and 0.01% BSA. Substrate concentrations in the assay were 5 μM ATP (200 uCi/μmole ATP) and 1 μM poly(Glu)4Tyr. Reactions were carried out at 25° C. and 1 nM JAK3.
To each well of a 96 well polycarbonate plate was added 1.5 μl of a candidate JAK3 inhibitor along with 50 μlof kinase buffer containing 2 μM poly(Glu)4Tyr and 10 μM ATP. This was then mixed and 50 μl of kinase buffer containing 2 nM JAK3 enzyme was added to start the reaction. After 20 minutes at room temperature (25° C.), the reaction was stopped with 50 μl of 20% trichloroacetic acid (TCA) that also contained 0.4 mM ATP. The entire contents of each well were then transferred to a 96 well glass fiber filter plate using a TomTek Cell Harvester. After washing, 60 μl of scintillation fluid was added and ^33P incorporation detected on a Perkin Elmer TopCount.

Row | inhibition of JAK3 at concentrations of 50 μM | pKi | Structure (SMILES) | also measured
1 | did not inhibit |  | C[C@H](Nc1nc(-c2ccc(F)nc2)ncc1F)C(=O)NCC(F)(F)F [Compound 1] | 
2 |  | 4.30 to 5.00 | C[C@H](Nc1nc(-c2ccnc(Cl)c2)ncc1F)C(=O)NCC(F)(F)F [Compound 2] | 
3 | did not inhibit |  | C[C@H](Nc1nc(-c2ccncc2)ncc1F)C(=O)NCC(F)(F)F [Compound 3] | 
4 |  | 5.00 to 6.00 | C[C@H](Nc1nc(-c2cccnc2)ncc1F)C(=O)NCC(F)(F)F [Compound 4] | 
5 | did not inhibit |  | C[C@H](Nc1nc(-c2cccnc2Cl)ncc1F)C(=O)NCC(F)(F)F [Compound 5] | 
6 |  | 4.30 to 5.00 | C[C@H](Nc1nc(-c2ccc(N)nc2)ncc1F)C(=O)NCC(F)(F)F [Compound 6] | 
7 | did not inhibit |  | C[C@H](Nc1nc(-c2c[nH]c(C(=O)O)c2)ncc1F)C(=O)NCC(F)(F)F [Compound 7] | 
8 |  | 4.30 to 5.00 | O=C(CNc1nc(-c2cccnc2F)ncc1F)NCC(F)(F)F [Compound 8] | 
9 | did not inhibit |  | O=C(CNc1nc(-c2ccc(F)nc2)ncc1F)NCC(F)(F)F [Compound 9] | 
10 | did not inhibit |  | COc1ccc(-c2ncc(F)c(NCC(=O)NCC(F)(F)F)n2)cn1 [Compound 10] | 
11 |  | 5.00 to 6.00 | O=C(CNc1nc(-c2cccnc2)ncc1F)NCC(F)(F)F [Compound 11] | 
12 | did not inhibit |  | O=C(CCNc1nc(-c2cccnc2F)ncc1F)NCC(F)(F)F [Compound 12] | 
13 | did not inhibit |  | O=C(CCNc1nc(-c2ccc(F)nc2)ncc1F)NCC(F)(F)F [Compound 13] | 
14 | did not inhibit |  | COc1ccc(-c2ncc(F)c(NCCC(=O)NCC(F)(F)F)n2)cn1 [Compound 14] | 
15 |  | 4.30 to 5.00 | O=C(CCNc1nc(-c2cccnc2)ncc1F)NCC(F)(F)F [Compound 15] | 
16 | did not inhibit |  | O=C(CCNc1nc(-c2cn[nH]c2)ncc1F)NCC(F)(F)F [Compound 16] | 
17 | did not inhibit |  | C[C@@H](Nc1nc(-c2cccnc2F)ncc1F)C(=O)NCC(F)(F)F [Compound 17] | 
18 | did not inhibit |  | COc1ccc(-c2ncc(F)c(N[C@H](C)C(=O)NCC(F)(F)F)n2)cn1 [Compound 18] | 
19 | did not inhibit |  | C[C@@H](Nc1nc(-c2ccc(F)nc2)ncc1F)C(=O)NCC(F)(F)F [Compound 19] | 
20 |  | 4.30 to 5.00 | C[C@@H](Nc1nc(-c2cccnc2)ncc1F)C(=O)NCC(F)(F)F [Compound 20] | 
21 | did not inhibit |  | O=C(NCC(F)(F)F)[C@H]1CCCN1c1nc(-c2cccnc2F)ncc1F [Compound 21] | 
22 | did not inhibit |  | O=C(NCC(F)(F)F)[C@H]1CCCN1c1nc(-c2ccc(F)nc2)ncc1F [Compound 22] | 
23 | did not inhibit |  | O=C(NCC(F)(F)F)[C@H]1CCCN1c1nc(-c2cccnc2)ncc1F [Compound 23] | 
24 | did not inhibit |  | O=C(NCC(F)(F)F)[C@@H]1CCCN1c1nc(-c2cccnc2F)ncc1F [Compound 24] | 
25 | did not inhibit |  | O=C(NCC(F)(F)F)[C@@H]1CCCN1c1nc(-c2ccc(F)nc2)ncc1F [Compound 25] | 
26 |  | 5.00 to 6.00 | O=C(NCC(F)(F)F)[C@@H]1CCCN1c1nc(-c2cccnc2)ncc1F [Compound 26] | 
27 |  | 5.00 to 6.00 | C[C@H](Nc1nc(-c2cccnc2N)ncc1F)C(=O)NCC(F)(F)F [Compound 27] | 
28 |  | 5.00 to 6.00 | CC(C)[C@H](Nc1ccnc(-c2cccnc2N)n1)C(=O)NCC(F)(F)F [Compound 28] | 

Row | inhibition of JAK3 at concentrations of 50 μM | pKi | Structure (SMILES) | also measured
29 |  | ≥ 6.00 | Nc1ncccc1-c1ncc(F)c(NCC(=O)NCC(F)(F)F)n1 [Compound 29] | 
30 |  | 5.00 to 6.00 | Nc1ncccc1-c1ncc(F)c(NCCC(=O)NCC(F)(F)F)n1 [Compound 30] | 
31 |  | 5.00 to 6.00 | CC(C)(Nc1ccnc(-c2cccnc2N)n1)C(=O)NCC(F)(F)F [Compound 31] | 
32 |  | 5.00 to 6.00 | Nc1ncccc1-c1ncc(F)c(N2CC(C(=O)NCC(F)(F)F)C2)n1 [Compound 32] | 
33 |  | ≥ 6.00 | C[C@H](Nc1cc(-n2nc(Nc3ccc(F)cc3)nc2N)ncn1)C(=O)NCC(F)(F)F [Compound 33] | 
34 |  | ≥ 6.00 | CC[C@H](Nc1cc(-n2nc(Nc3ccc(F)cc3)nc2N)ncn1)C(=O)NCC(F)(F)F [Compound 34] | 
35 |  | ≥ 6.00 | Nc1nc(Nc2ccc(F)cc2)nn1-c1cc(NCCC(=O)NCC(F)(F)F)ncn1 [Compound 35] | 
36 |  | ≥ 6.00 | Nc1nc(Nc2ccc(F)cc2)nn1-c1cc(NCC(=O)NCC(F)(F)F)ncn1 [Compound 36] | 
37 |  | ≥ 6.00 | Nc1nc(Nc2ccc(F)cc2)nn1-c1cc(N2CCC[C@@H]2C(=O)NCC(F)(F)F)ncn1 [Compound 37] | 
38 |  | 5.00 to 6.00 | COc1ccc(Nc2nc(N)n(-c3nccc(NC(C)(C)C(=O)NCC(F)(F)F)n3)n2)cc1 [Compound 38] | 
39 |  | 5.00 to 6.00 | COc1ccc(Nc2nc(N)n(-c3ncc(F)c(N4CCC[C@@H]4C(=O)NCC(F)(F)F)n3)n2)cc1 [Compound 39] | 
40 |  |  | COc1ccc(Nc2nc(N)n(-c3ncc(F)c(N4CCC[C@@H]4C(=O)NCC(F)(F)F)n3)n2)c(C)c1 [Compound 40] | inhibition of JAK3 at concentrations of 5.0 μM: did not inhibit
41 |  |  | Nc1nc(Nc2ccccc2Cl)nn1-c1ncc(F)c(N2CCC[C@@H]2C(=O)NCC(F)(F)F)n1 [Compound 41] | inhibition of JAK3 at concentrations of 5.0 μM: did not inhibit
42 |  | ≥ 6.00 | COc1ccc(Nc2nc(N)n(-c3nccc(N[C@H](C(=O)NCC(F)(F)F)C(C)C)n3)n2)cc1 [Compound 42] | 
43 |  | 5.00 to 6.00 | COc1ccc(Nc2nc(N)n(-c3ncc(F)c(N[C@@H](C(=O)NCC(F)(F)F)C(C)C)n3)n2)cc1 [Compound 43] | 
44 |  | 5.00 to 6.00 | Nc1nc(Nc2ccc(F)cc2)nn1-c1ncc(F)c(N2CCC[C@@H]2C(=O)NCC(F)(F)F)n1 [Compound 44] | 
45 |  | 5.00 to 6.00 | C[C@H](Nc1nc(-n2nc(Nc3ccc(F)cc3)nc2N)ncc1F)C(=O)NCC(F)(F)F [Compound 45] | 
46 |  |  | Nc1nc(Nc2cccnc2)nn1-c1ncc(F)c(N2CCC[C@@H]2C(=O)NCC(F)(F)F)n1 [Compound 46] | inhibition of JAK3 at concentrations of 5.0 μM: did not inhibit
47 |  |  | Nc1nc(NC2CCCCC2)nn1-c1ncc(F)c(N2CCC[C@@H]2C(=O)NCC(F)(F)F)n1 [Compound 47] | inhibition of JAK3 at concentrations of 5.0 μM: did not inhibit
48 |  |  | Nc1nc(NCC2CCCCC2)nn1-c1ncc(F)c(N2CCC[C@@H]2C(=O)NCC(F)(F)F)n1 [Compound 48] | inhibition of JAK3 at concentrations of 5.0 μM: did not inhibit
49 |  | 5.00 to 6.00 | Nc1nc(Nc2ccc([C@H]3CC[C@H](N4CCOCC4)CC3)cc2)nn1-c1ncc(F)c(N2CCC[C@@H]2C(=O)NCC(F)(F)F)n1 [Compound 49] | 
50 |  | 5.00 to 6.00 | COc1ccc(Nc2nc(N)n(-c3ncc(F)c(NCCC(=O)NCC(F)(F)F)n3)n2)cc1 [Compound 50] | 
51 |  | 5.00 to 6.00 | Nc1nc(Nc2ccccc2)nn1-c1ncc(F)c(N2CCC[C@@H]2C(=O)NCC(F)(F)F)n1 [Compound 51] | 
52 |  |  | Nc1nc(NC2CC2)nn1-c1ncc(F)c(N2CCC[C@@H]2C(=O)NCC(F)(F)F)n1 [Compound 52] | inhibition of JAK3 at concentrations of 5.0 μM: did not inhibit
53 |  |  | CC(C)Nc1nc(N)n(-c2ncc(F)c(N3CCC[C@@H]3C(=O)NCC(F)(F)F)n2)n1 [Compound 53] | inhibition of JAK3 at concentrations of 5.0 μM: did not inhibit
54 |  |  | CCCNc1nc(N)n(-c2ncc(F)c(N3CCC[C@@H]3C(=O)NCC(F)(F)F)n2)n1 [Compound 54] | inhibition of JAK3 at concentrations of 5.0 μM: did not inhibit
55 |  |  | Nc1nc(NCC2CCCO2)nn1-c1ncc(F)c(N2CCC[C@@H]2C(=O)NCC(F)(F)F)n1 (stereo partly shown) [Compound 55] | inhibition of JAK3 at concentrations of 5.0 μM: did not inhibit
